In the supplement of paper PMC10307832:

Legend:
Assay in all cases: relative viability (nuclei count vs DMSO), 5 days (fraction); higher = more cells survive
A-427 = tested on: A-427
Procedure, shortened: (§1)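 One day after seeding in 1536-well plates, lung cancer cell lines were dosed by pin tool. Dosing was either single-drug or a fixed anchor-drug dose plus five library-drug doses (not always all listed) in √10 steps. After 5 days, nuclei were stained in one fix-and-stain step and counted on 4× images, and relative viability is the nuclei count of treated wells over that of vehicle wells, given as the median of duplicate plates.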

EKVX = tested on: EKVX
Procedure, shortened: as §1

H3255 = tested on: H3255
Procedure, shortened: as §1

LK-2 = tested on: LK-2
Procedure, shortened: as §1

NCI-H1355 = tested on: NCI-H1355
Procedure, shortened: as §1

NCI-H1666 = tested on: NCI-H1666
Procedure, shortened: as §1

NCI-H1755 = tested on: NCI-H1755
Procedure, shortened: as §1

NCI-H1944 = tested on: NCI-H1944
Procedure, shortened: as §1

NCI-H2085 = tested on: NCI-H2085
Procedure, shortened: as §1

NCI-H2228 = tested on: NCI-H2228
Procedure, shortened: as §1

NCI-H2347 = tested on: NCI-H2347
Procedure, shortened: as §1

NCI-H3122 = tested on: NCI-H3122
Procedure, shortened: as §1

NCI-H322M = tested on: NCI-H322M
Procedure, shortened: as §1

NCI-H358 = tested on: NCI-H358
Procedure, shortened: as §1

NCI-H441 = tested on: NCI-H441
Procedure, shortened: as §1

NCI-H460 = tested on: NCI-H460
Procedure, shortened: as §1

NCI-H520 = tested on: NCI-H520
Procedure, shortened: as §1

NCI-H596 = tested on: NCI-H596
Procedure, shortened: as §1

NCI-H650 = tested on: NCI-H650
Procedure, shortened: as §1

NCI-H838 = tested on: NCI-H838
Procedure, shortened: as §1

SW 1573 = tested on: SW 1573
Procedure, shortened: as §1

## O=C(O)CCCCC(CCSCc1ccccc1)SCc1ccccc1 (stereo not given) [CPI-613] + C[C@]1(O)C[C@@H](c2nc(-c3ccc4ccc(-c5ccccc5)nc4c3)c3c(N)nccn32)C1 [Linsitinib] (partner 1 µM)
A-427; first compound 5 µM
  relative viability: 1.1
A-427; first compound 15.81 µM
  relative viability: 1.12
A-427; first compound 50 µM
  relative viability: 1.02
A-427; first compound 158.11 µM
  relative viability: 0.847
A-427; first compound 500 µM
  relative viability: 0.618
EKVX; first compound 5 µM
  relative viability: 0.993
EKVX; first compound 15.81 µM
  relative viability: 0.988
EKVX; first compound 50 µM
  relative viability: 0.955
EKVX; first compound 158.11 µM
  relative viability: 1.04
EKVX; first compound 500 µM
  relative viability: 1.05
H3255; first compound 5 µM
  relative viability: 0.915
H3255; first compound 15.81 µM
  relative viability: 0.989
H3255; first compound 50 µM
  relative viability: 0.969
H3255; first compound 158.11 µM
  relative viability: 0.948
H3255; first compound 500 µM
  relative viability: 0.921
LK-2; first compound 5 µM
  relative viability: 0.526
LK-2; first compound 15.81 µM
  relative viability: 0.637
LK-2; first compound 50 µM
  relative viability: 0.655
LK-2; first compound 158.11 µM
  relative viability: 0.853
LK-2; first compound 500 µM
  relative viability: 0.54
NCI-H1355; first compound 5 µM
  relative viability: 0.78
NCI-H1355; first compound 15.81 µM
  relative viability: 0.825
NCI-H1355; first compound 50 µM
  relative viability: 0.856
NCI-H1355; first compound 158.11 µM
  relative viability: 0.477
NCI-H1355; first compound 500 µM
  relative viability: 0.103
NCI-H1666; first compound 5 µM
  relative viability: 0.783
NCI-H1666; first compound 15.81 µM
  relative viability: 0.907
NCI-H1666; first compound 50 µM
  relative viability: 0.789
NCI-H1666; first compound 158.11 µM
  relative viability: 0.172
NCI-H1666; first compound 500 µM
  relative viability: 0.167
NCI-H1755; first compound 5 µM
  relative viability: 0.991
NCI-H1755; first compound 15.81 µM
  relative viability: 0.977
NCI-H1755; first compound 50 µM
  relative viability: 0.9
NCI-H1755; first compound 158.11 µM
  relative viability: 0.888
NCI-H1755; first compound 500 µM
  relative viability: 0.152
NCI-H1944; first compound 5 µM
  relative viability: 1.31
NCI-H1944; first compound 15.81 µM
  relative viability: 1.15
NCI-H1944; first compound 50 µM
  relative viability: 1.14
NCI-H1944; first compound 158.11 µM
  relative viability: 0.968
NCI-H1944; first compound 500 µM
  relative viability: 0.787
NCI-H2085; first compound 5 µM
  relative viability: 0.854
NCI-H2085; first compound 15.81 µM
  relative viability: 0.759
NCI-H2085; first compound 50 µM
  relative viability: 0.95
NCI-H2085; first compound 158.11 µM
  relative viability: 0.548
NCI-H2085; first compound 500 µM
  relative viability: 0.2
NCI-H2228; first compound 5 µM
  relative viability: 0.735
NCI-H2228; first compound 15.81 µM
  relative viability: 0.453
NCI-H2228; first compound 50 µM
  relative viability: 0.402
NCI-H2228; first compound 158.11 µM
  relative viability: 0.221
NCI-H2228; first compound 500 µM
  relative viability: 0.0094
NCI-H2347; first compound 5 µM
  relative viability: 0.983
NCI-H2347; first compound 15.81 µM
  relative viability: 0.857
NCI-H2347; first compound 50 µM
  relative viability: 0.86
NCI-H2347; first compound 158.11 µM
  relative viability: 0.874
NCI-H2347; first compound 500 µM
  relative viability: 0.868
NCI-H3122; first compound 5 µM
  relative viability: 0.985
NCI-H3122; first compound 15.81 µM
  relative viability: 1.02
NCI-H3122; first compound 50 µM
  relative viability: 0.988
NCI-H3122; first compound 158.11 µM
  relative viability: 0.644
NCI-H3122; first compound 500 µM
  relative viability: 0.0543
NCI-H322M; first compound 5 µM
  relative viability: 0.832
NCI-H322M; first compound 15.81 µM
  relative viability: 0.721
NCI-H322M; first compound 50 µM
  relative viability: 0.931
NCI-H322M; first compound 158.11 µM
  relative viability: 0.693
NCI-H322M; first compound 500 µM
  relative viability: 0.634
NCI-H358; first compound 5 µM
  relative viability: 0.684
NCI-H358; first compound 15.81 µM
  relative viability: 0.769
NCI-H358; first compound 50 µM
  relative viability: 0.743
NCI-H358; first compound 158.11 µM
  relative viability: 0.347
NCI-H358; first compound 500 µM
  relative viability: 0.0758
NCI-H441; first compound 5 µM
  relative viability: 0.521
NCI-H441; first compound 15.81 µM
  relative viability: 0.59
NCI-H441; first compound 50 µM
  relative viability: 0.605
NCI-H441; first compound 158.11 µM
  relative viability: 0.255
NCI-H441; first compound 500 µM
  relative viability: 0.132
NCI-H460; first compound 5 µM
  relative viability: 0.751
NCI-H460; first compound 15.81 µM
  relative viability: 0.737
NCI-H460; first compound 50 µM
  relative viability: 0.78
NCI-H460; first compound 158.11 µM
  relative viability: 0.125
NCI-H460; first compound 500 µM
  relative viability: 0.0075
NCI-H520; first compound 5 µM
  relative viability: 0.842
NCI-H520; first compound 15.81 µM
  relative viability: 1.09
NCI-H520; first compound 50 µM
  relative viability: 1.03
NCI-H520; first compound 158.11 µM
  relative viability: 0.412
NCI-H520; first compound 500 µM
  relative viability: 0.12
NCI-H596; first compound 5 µM
  relative viability: 1.02
NCI-H596; first compound 15.81 µM
  relative viability: 1.04
NCI-H596; first compound 50 µM
  relative viability: 1.14
NCI-H596; first compound 158.11 µM
  relative viability: 0.519
NCI-H596; first compound 500 µM
  relative viability: 0.0361
NCI-H650; first compound 5 µM
  relative viability: 0.905
NCI-H650; first compound 15.81 µM
  relative viability: 0.807
NCI-H650; first compound 50 µM
  relative viability: 0.975
NCI-H650; first compound 158.11 µM
  relative viability: 0.746
NCI-H650; first compound 500 µM
  relative viability: 0.747
NCI-H838; first compound 5 µM
  relative viability: 1.04
NCI-H838; first compound 15.81 µM
  relative viability: 0.956
NCI-H838; first compound 50 µM
  relative viability: 0.905
NCI-H838; first compound 158.11 µM
  relative viability: 0.544
NCI-H838; first compound 500 µM
  relative viability: 0.0935
SW 1573; first compound 5 µM
  relative viability: 0.878
SW 1573; first compound 15.81 µM
  relative viability: 0.751
SW 1573; first compound 50 µM
  relative viability: 0.816
SW 1573; first compound 158.11 µM
  relative viability: 0.625
SW 1573; first compound 500 µM
  relative viability: 0.576
